Test results: US5968907A (priority 1997, dated 1999)

The compounds below were run against cholera toxin (Vibrio cholerae serotype O1, UniProt P01556) (assay: biochemical). Conditions: read-out: inhibition of binding of cholera toxin to ganglioside GD1b.
Chain of cholera toxin (P01556 22-124 limits assumed): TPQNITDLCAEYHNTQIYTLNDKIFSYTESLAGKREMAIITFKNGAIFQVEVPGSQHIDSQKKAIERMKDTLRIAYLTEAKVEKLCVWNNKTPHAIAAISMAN

`CC(O)CC(S[C@@H]1O[C@H](CO)[C@H](O)[C@H](O)[C@H]1O)c1ccccc1` (stereo partly drawn) [Example A3, 3-Hydroxy-1-phenylbut-1-yl 1-Thio-β-D-galactopyranoside] and `CC(N)CC(S[C@@H]1O[C@H](CO)[C@H](O)[C@H](O)[C@H]1O)c1ccccc1` (stereo partly drawn) [Example B3, 3-Amino-1-phenylbut-1-yl 1-Thio-β-D-galactopyranoside] cannot be ordered by inhibition at 1000 µg/mL: under 20% for the first, under 20% for the second.

`CC1(C)CC(O)CC1S[C@@H]1O[C@H](CO)[C@H](O)[C@H](O)[C@H]1O` (stereo partly drawn) [Example A6, 2,2-Dimethyl-4-hydroxycyclopent-1-yl 1-Thio-β-D-galactopyranoside] and `CC1(C)CC(N)CC1S[C@@H]1O[C@H](CO)[C@H](O)[C@H](O)[C@H]1O` (stereo partly drawn) [Example B6, 2,2-Dimethyl-4aminocyclopent-1-yl 1-Thio-β-D-galactopyranoside] cannot be ordered by inhibition at 1000 µg/mL: under 20% for the first, at least 20% for the second.

`CC(O)CC(C)S[C@@H]1O[C@H](CO)[C@H](O)[C@H](O)[C@H]1O` (stereo partly drawn) [Example A8, 4Hydroxypent-2-yl 1-Thio-β-D-galactopyranoside] and `CC(N)CC(C)S[C@@H]1O[C@H](CO)[C@H](O)[C@H](O)[C@H]1O` (stereo partly drawn) [Example B8, 4-Aminopent-2-yl 1-Thio-β-D-galactopyranoside] cannot be ordered by inhibition at 1000 µg/mL: under 20% for the first, at least 20% for the second.

`CNC1CC(S[C@@H]2O[C@H](CO)[C@H](O)[C@H](O)[C@H]2O)C(C)(C)C1` (stereo partly drawn) [Example B6A, 2,2-Dimethyl-4-(methylamino)-cyclopent-1-yl 1-Thio-β-D-galactopyranoside] and `CC1(C)CC(NCCC(=O)O)CC1S[C@@H]1O[C@H](CO)[C@H](O)[C@H](O)[C@H]1O` (stereo partly drawn) [Example F6, Nβ-[4,4-Dimethyl-3-(1-thio-β-D-galactopyranosyl)-cyclopent-1-yl]-βalanine] cannot be ordered by inhibition at 1000 µg/mL: at least 20% for the first, under 20% for the second.

`CC1CCC(NC2CC(S[C@@H]3O[C@H](CO)[C@H](O)[C@H](O)[C@H]3O)C(C)(C)C2)CC1` (stereo partly drawn) [Example B6L, 2,2-Dimethyl-4-(4-methylcyclohex-1-ylamino)-cyclopent-1-yl 1-Thio-β-D-galactopyranoside] and `CC1CCC(NC2CC(S[C@@H]3O[C@H](CO)[C@H](O)[C@H](O)[C@H]3O)C(C)(C)C2)C1` (stereo partly drawn) [Example B6Q, 2,2-Dimethyl-4-(3-methylcyclopent-1-ylamino)-cyclopent-1-yl 1-Thio-β-D-galactopyranoside] cannot be ordered by inhibition at 1000 µg/mL: at least 20% for the first, at least 20% for the second.

`CC1CCCC(NC2CC(S[C@@H]3O[C@H](CO)[C@H](O)[C@H](O)[C@H]3O)C(C)(C)C2)C1` (stereo partly drawn) [Example B6T, 2,2-Dimethyl-4-(3-methylcyclohex-1-ylamino)-cyclopent-1-yl 1-Thio-β-D-galactopyranoside] and `CC1(C)CCC(NCC(=O)O)CC1S[C@@H]1O[C@H](CO)[C@H](O)[C@H](O)[C@H]1O` (stereo partly drawn) [Example E9, Nα-[4,4-Dimethyl-3-(1-thio-β-D-galactopyranosyl)-cyclohex-1-yl]glycine] cannot be ordered by inhibition at 1000 µg/mL: at least 20% for the first, under 20% for the second.

`CC(=O)NC1CCCC1S[C@@H]1O[C@H](CO)[C@H](O)[C@H](O)[C@H]1O` (stereo partly drawn) [Example C1, 2-Acetamidocyclopent-1-yl 1-Thio-β-D-galactopyranoside] and `O=C(O)c1ccccc1C(=O)NC1CCCC1S[C@@H]1O[C@H](CO)[C@H](O)[C@H](O)[C@H]1O` (stereo partly drawn) [Example D1, 2-(2-Carboxybenzamido)cyclopent-1-yl 1-Thio-β-D-galactopyranoside] cannot be ordered by inhibition at 1000 µg/mL: under 20% for the first, at least 20% for the second.

`CC(=O)NC(C)CC(S[C@@H]1O[C@H](CO)[C@H](O)[C@H](O)[C@H]1O)c1ccccc1` (stereo partly drawn) [Example C3, 3-Acetamido-1-phenylbut-1-yl 1-Thio-β-D-galactopyranoside] and `CC(C)C[C@H](NC(C)CC(S[C@@H]1O[C@H](CO)[C@H](O)[C@H](O)[C@H]1O)c1ccccc1)C(=O)O` (stereo partly drawn) [Example G3, Nα-[4-Phenyl-4-(1-thio-β-galactopyranosyl)but-2-yl]-L-leucine] cannot be ordered by inhibition at 1000 µg/mL: under 20% for the first, under 20% for the second.

`CC(=O)NC(C)CC(C)S[C@@H]1O[C@H](CO)[C@H](O)[C@H](O)[C@H]1O` (stereo partly drawn) [Example C8, 4-Acetamidopent-2-yl 1-Thio-β-D-galactopyranoside] and `CC(CC(C)S[C@@H]1O[C@H](CO)[C@H](O)[C@H](O)[C@H]1O)NCC(=O)O` (stereo partly drawn) [Example E8, Nα-[4-(1-Thio-β-D-galactopyranosyl)pent-2-yl]glycine] cannot be ordered by inhibition at 1000 µg/mL: under 20% for the first, under 20% for the second.

`CC(CC(S[C@@H]1O[C@H](CO)[C@H](O)[C@H](O)[C@H]1O)c1ccccc1)NC(=O)c1ccccc1C(=O)O` (stereo partly drawn) [Example D3, 3-(2-Carboxybenzamido)-1-phenylbut-1-yl 1-Thio-β-D-galactopyranoside] and `CC(CC(C)S[C@@H]1O[C@H](CO)[C@H](O)[C@H](O)[C@H]1O)NC(=O)c1ccccc1C(=O)O` (stereo partly shown) [Example D8] cannot be ordered by inhibition at 1000 µg/mL: under 20% for the first, at least 20% for the second.

`O=C(O)CNC1CCCCC(S[C@@H]2O[C@H](CO)[C@H](O)[C@H](O)[C@H]2O)C1` (stereo partly drawn) [Example E5, Nα-[3-(1-Thio-β-D-galactopyranosyl)cyclohept-1-yl]glycine] and `CC(C)C[C@H](NC1CCCC(S[C@@H]2O[C@H](CO)[C@H](O)[C@H](O)[C@H]2O)C1)C(=O)O` (stereo partly drawn) [Example G10, Nα-[3-(1-Thio-β-D-galactopyranosyl)cyclohex-1-yl]-L-leucine] cannot be ordered by inhibition at 1000 µg/mL: under 20% for the first, under 20% for the second.

`CC1(C)CCC(NCCC(=O)O)CC1S[C@@H]1O[C@H](CO)[C@H](O)[C@H](O)[C@H]1O` (stereo partly drawn) [Example F9, Nβ-[4,4Dimethyl-3-(1-thio-β-D-galactopyranosyl)-cyclohex-1-yl]-β-alanime] and `CC(C)C[C@H](NC1CCC(C)(C)C(S[C@@H]2O[C@H](CO)[C@H](O)[C@H](O)[C@H]2O)C1)C(=O)O` (stereo partly drawn) [Example G9, Nα-[4,4-Dimethyl-3-(1-thio-β-D-galactopyranosyl)-cyclohex-1-yl]-L-leucine] cannot be ordered by inhibition at 1000 µg/mL: under 20% for the first, under 20% for the second.

`CC(C)C[C@H](NC1CCC(S[C@@H]2O[C@H](CO)[C@H](O)[C@H](O)[C@H]2O)C1)C(=O)O` (stereo partly drawn) [Example G7, Nα-[3-(1-Thio-β-D-galactopyranosyl)cyclopent-1-yl]-L-leucine] and `N=C(N)NCCC[C@H](NC1CCCC(S[C@@H]2O[C@H](CO)[C@H](O)[C@H](O)[C@H]2O)C1)C(=O)O` (stereo partly drawn) [Example J10, Nα-[3-(1-Thio-β-D-galactopyranosyl)cyclohex-1-yl]-L-arginine] cannot be ordered by inhibition at 1000 µg/mL: under 20% for the first, under 20% for the second.

`CC(C)C[C@H](NC(C)CC(C)S[C@@H]1O[C@H](CO)[C@H](O)[C@H](O)[C@H]1O)C(=O)O` (stereo partly drawn) [Example G8, Nα-[4-(1-Thio-β-D-galactopyranosyl)pent-2-yl]-L-leucine] and `CC(CC(C)S[C@@H]1O[C@H](CO)[C@H](O)[C@H](O)[C@H]1O)N[C@@H](CCCNC(=N)N)C(=O)O` (stereo partly drawn) [Example J8, Nα-[4-(1-Thio-β-D-galactopyranosyl)pent-2-yl]-L-arginine] cannot be ordered by inhibition at 1000 µg/mL: under 20% for the first, under 20% for the second.

`CC(CC(S[C@@H]1O[C@H](CO)[C@H](O)[C@H](O)[C@H]1O)c1ccccc1)N[C@@H](Cc1c[nH]c2ccccc12)C(=O)O` (stereo partly drawn) [Example I3, Nα-[4-Phenyl-4-(1-thio-β-D-galactopyranosyl)but-2-yl]-L-tryptophan] and `CC(CC(C)S[C@@H]1O[C@H](CO)[C@H](O)[C@H](O)[C@H]1O)N[C@@H](Cc1c[nH]c2ccccc12)C(=O)O` (stereo partly drawn) [Example I8, Nα-[4-(1-Thio-β-D-galactopyranosyl)pent-2-yl]-L-tryptophan] cannot be ordered by inhibition at 1000 µg/mL: at least 20% for the first, under 20% for the second.

`CC1(C)CCC(N[C@@H](Cc2c[nH]c3ccccc23)C(=O)O)CC1S[C@@H]1O[C@H](CO)[C@H](O)[C@H](O)[C@H]1O` (stereo partly drawn) [Example I9, Nα-[4,4-Dimethyl-3-(1-thio-β-D-galactopyranosyl)-cyclohex-1-yl]-L-tryptophan] and `O=C(O)[C@H](Cc1c[nH]c2ccccc12)NC1CCCC(S[C@@H]2O[C@H](CO)[C@H](O)[C@H](O)[C@H]2O)C1` (stereo partly drawn) [Example I10, Nα-[3-(1-Thio-β-D-galactopyranosyl)cyclohex-1-yl]-L-tryptophan] cannot be ordered by inhibition at 1000 µg/mL: under 20% for the first, under 20% for the second.

`N=C(N)NCCC[C@H](NC1CCCC1S[C@@H]1O[C@H](CO)[C@H](O)[C@H](O)[C@H]1O)C(=O)O` (stereo partly drawn) [Example J1, Nα-[2-(1-Thio-β-D-galactopyranosyl)cyclopent-1-yl]-L-arginine] and `N=C(N)NCCC[C@H](NC1CCCCC(S[C@@H]2O[C@H](CO)[C@H](O)[C@H](O)[C@H]2O)C1)C(=O)O` (stereo partly drawn) [Example J5, Nα-[3-(1-Thio-β-D-galactopyranosyl)cyclohept-1-yl]-L-arginine] cannot be ordered by inhibition at 1000 µg/mL: at least 20% for the first, under 20% for the second.

`CC(CC(S[C@@H]1O[C@H](CO)[C@H](O)[C@H](O)[C@H]1O)c1ccccc1)N[C@@H](CCCNC(=N)N)C(=O)O` (stereo partly drawn) [Example J3, Nα-[4-Phenyl-4-(1-Thio-β-D-galactopyranosyl)but-2-yl]-L-arginine] and `CC1(C)CC(N[C@@H](CCCNC(=N)N)C(=O)O)CC1S[C@@H]1O[C@H](CO)[C@H](O)[C@H](O)[C@H]1O` (stereo partly drawn) [Example J6, Nα-[4,4-Dimethyl-3-(1-thio-β-D-galactopyranosyl)-cyclopent-1-yl]-L-arginine] cannot be ordered by inhibition at 1000 µg/mL: at least 20% for the first, under 20% for the second.

The compounds below were run against heat-labile enterotoxin from E. coli (Escherichia coli, UniProt P0CK94) (assay: not given). Conditions: at the concentration employed in the assay.
Assay type: binding

Chain of heat-labile enterotoxin from E. coli (P0CK94 whole entry, looked up): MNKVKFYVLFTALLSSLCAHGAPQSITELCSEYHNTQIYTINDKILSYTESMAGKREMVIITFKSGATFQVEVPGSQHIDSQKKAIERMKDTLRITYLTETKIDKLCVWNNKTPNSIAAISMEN

In the case of `OC[C@H]1O[C@@H](SC2CCCCC2O)[C@H](O)[C@@H](O)[C@H]1O` (stereo partly drawn) [Example A2, 2-Hydroxycyclohex-1-yl 1-Thio-β-D-galactopyranoside], the “inhibition of binding of heat-labile enterotoxin to ganglioside GD1b” value (“inhibition of binding … to ganglioside GD1b” for short) is reported as under 20%.
With `CC1(C)CCC(S[C@@H]2O[C@H](CO)[C@H](O)[C@H](O)[C@H]2O)CC1O` (stereo partly drawn) [Example A11, 4,4Dimethyl-3-hydroxycyclohex-1-yl 1-Thio-β-D-galactopyranoside] the “inhibition of binding … to ganglioside GD1b” value was “at least 20%”.
For `CC1(C)CCC(S[C@@H]2O[C@H](CO)[C@H](O)[C@H](O)[C@H]2O)CC1N` (stereo partly drawn) [Example B11, 3-Amino-4,4-dimethylcyclohex-1-yl 1-Thio-β-D-galactopyranoside], the “inhibition of binding … to ganglioside GD1b” value was “at least 20%”.
With `CC(=O)NC1CCCCC1S[C@@H]1O[C@H](CO)[C@H](O)[C@H](O)[C@H]1O` (stereo partly drawn) [Example C2, 2-Acetamidocyclohex-1-yl 1-Thio-β-D-galactopyranoside] the “inhibition of binding … to ganglioside GD1b” value was “at least 20%”.
